Converted amounts (≈) assume the structure as drawn. The source made the active and inactive calls. No cut-off for these calls is given here.
How the values were obtained:
[1] = tested on: Trichophyton mentagrophytes; assay: Antifungal activity against Trichophyton mentagrophytes DUMC112.02 by CLSI protocol; format: functional
[2] = tested on: Trichophyton mentagrophytes; assay: Antifungal activity against Trichophyton mentagrophytes DUMC160.03 by CLSI protocol; format: functional
[3] = tested on: Zone of skin; assay: Toxicity to human skin assessed as damage of skin integrity at 2 fold MIC administered 30 mins post inoculation followed by once in every 2 days for 7 days by scanning electron microscopy; format: tissue-based
[4] = tested on: Trichophyton mentagrophytes; assay: Antifungal activity against Trichophyton mentagrophytes DUMC160.03 infected in human skin at 2 fold MIC administered 30 mins post infection followed by once in every 2 days for 7 days by scanning electron microscopy relative to control; format: functional, organism-based

Structure (SMILES) | MIC [1] | MIC80 [1] | MIC [2] | MIC80 [2] | Activity [3] | Activity [4]
C=CC[C@@H]1/C=C(\C)C[C@H](C)C[C@H](OC)[C@H]2O[C@@](O)(C(=O)C(=O)N3CCCC[C@H]3C(=O)O[C@H](/C(C)=C/[C@@H]3CC[C@@H](O)[C@H](OC)C3)[C@H](C)[C@@H](O)CC1=O)[C@H](C)C[C@@H]2OC [TACROLIMUS ANHYDROUS] | 1 µg/mL (≈ 1.24 µM) | 1 µg/mL (≈ 1.24 µM) | 1 µg/mL (≈ 1.24 µM) | 1 µg/mL (≈ 1.24 µM) | Non-toxic | inactive
CN(C/C=C/C#CC(C)(C)C)Cc1cccc2ccccc12 [TERBINAFINE] | 0.004 µg/mL (≈ 0.0137 µM) |  | 0.0312 µg/mL (≈ 0.107 µM) |  | Non-toxic | Active
C/C=C/C[C@@H](C)[C@@H](O)[C@H]1C(=O)N[C@@H](CC)C(=O)N(C)CC(=O)N(C)[C@@H](CC(C)C)C(=O)N[C@@H](C(C)C)C(=O)N(C)[C@@H](CC(C)C)C(=O)N[C@@H](C)C(=O)N[C@H](C)C(=O)N(C)[C@@H](CC(C)C)C(=O)N(C)[C@@H](CC(C)C)C(=O)N(C)[C@@H](C(C)C)C(=O)N1C [CYCLOSPORINE] | 2 µg/mL (≈ 1.66 µM) | 2 µg/mL (≈ 1.66 µM) | 1 µg/mL (≈ 0.832 µM) | 8 µg/mL (≈ 6.65 µM) |  | 
OC(Cn1cncn1)(Cn1cncn1)c1ccc(F)cc1F [FLUCONAZOLE] | 8 µg/mL (≈ 26.1 µM) | 16 µg/mL (≈ 52.2 µM) | 8 µg/mL (≈ 26.1 µM) | 16 µg/mL (≈ 52.2 µM) | Non-toxic | Active

Reference: ChEMBL document CHEMBL1153835, “Targeting the calcineurin pathway enhances ergosterol biosynthesis inhibitors against Trichophyton mentagrophytes in vitro and in a human skin infection model” (Antimicrob Agents Chemother, 2007)
